Experimental data reported in US8329672B2, “Oral and/or topical compositions comprising prebiotics and fatty acid” (Cognis IP Management GmbH, priority 2004, dated 2012).

Key:
Bifidobacterium = assay: Stimulation of growth of Bifidobacterium in vitro (enumeration in human faecal homogenate culture); type: cell-based, Bifidobacterium spp; settings: human faecal homogenate in diluted WC broth, incubated up to 24 hours, control 1.0 × 10^6
Description: (§1) The stimulation of growth of microorganisms has been studied by enumerating bifidobacterium and lactobacilli in vitro in the presence of various test substances. More specifically, aliquots (1 mL) of human faecal homogenates (10 g per 100 mL diluent) were added to diluted WC broth (diluted 50:50 with 0.05M phosphate buffer) to which were added the test mixtures and a lactobacillus or bifidobacterium strain. For each of the combinations, parallel tubes were prepared with one set being inoculated with Bifidobacterium spp or Lactobacillus spp. All mixtures were then incubated for up to 24 hours and bacterial numbers enumerated.

Lactobacterium = assay: Stimulation of growth of lactobacilli in vitro (enumeration in human faecal homogenate culture); type: cell-based, Lactobacillus spp; settings: human faecal homogenate in diluted WC broth, incubated up to 24 hours, control 2.8 × 10^5
Description: as §1

Compound: CLA [C5]
- Bacterial numbers (CFU/ml) (Bifidobacterium; 1% fatty acid alone): 3.5 × × 10^6 CFU/ml
- Bacterial numbers (CFU/ml) (Lactobacterium; 1% fatty acid alone): 4.2 × × 10^5 CFU/ml

Compound: CLA-TG [C6]
- Bacterial numbers (CFU/ml) (Bifidobacterium; 1% fatty acid alone): 2.1 × × 10^6 CFU/ml
- Bacterial numbers (CFU/ml) (Lactobacterium; 1% fatty acid alone): 4.4 × × 10^5 CFU/ml

Compound: OC[C@H]1O[C@@H](O[C@H]2[C@H](O)[C@@H](O)[C@@H](O[C@]3(CO)O[C@H](CO)[C@@H](O)[C@@H]3O)O[C@@H]2CO)[C@H](O)[C@@H](O)[C@H]1O [C2, Lactosucrose]
- Bacterial numbers (CFU/ml) (Bifidobacterium; 1% prebiotic alone): 1.1 × × 10^7 CFU/ml
- Bacterial numbers (CFU/ml) (Lactobacterium; 1% prebiotic alone): 1.1 × × 10^6 CFU/ml

Compound: Lactolin [C3]
- Bacterial numbers (CFU/ml) (Bifidobacterium; 1% prebiotic alone): 1.6 × × 10^7 CFU/ml
- Bacterial numbers (CFU/ml) (Lactobacterium; 1% prebiotic alone): 1.5 × × 10^6 CFU/ml

Compound: CLA-SE [C7]
- Bacterial numbers (CFU/ml) (Bifidobacterium; 1% fatty acid alone): 2.9 × × 10^6 CFU/ml
- Bacterial numbers (CFU/ml) (Lactobacterium; 1% fatty acid alone): 4.4 × × 10^5 CFU/ml

Compound: Betaglucan [C4]
- Bacterial numbers (CFU/ml) (Bifidobacterium; 1% prebiotic alone): 1.2 × × 10^7 CFU/ml
- Bacterial numbers (CFU/ml) (Lactobacterium; 1% prebiotic alone): 1.1 × × 10^6 CFU/ml
